This assay deals with Lysine-specific histone demethylase 1A (Homo sapiens, UniProt O60341). The experiment in a line: In Vitro Enzyme Inhibition Assay - LSD-1.

Each structure is given as a SMILES string. Bounds are passed on as bounds.

Consider 1 molecule from BindingDB's records for patent US10548896 (Celgene Quanticel Research, 2020).

For orientation: IC50 means the midpoint of a concentration-inhibition curve. A higher IC50 goes with weaker potency. As to `CN(C)C1CCN(c2nc(-c3ccc(C#N)c(F)c3)c(C3=CC4C=NN(C)C4C=C3)c(=O)n2C)CC1` (stereo unspecified) [US10548896, Example 72], the IC50 was below 0.1 µM.
